In the NIST ThermoML archive (doi:10.1016/j.jct.2011.01.010):

Test: osmotic coefficient (dimensionless); mn = molality of the nth substance listed, in mol/kg
Settings: 323.15 K, Liquid, vapor pressure osmometry

CCCCO [butan-1-ol] + COS(=O)(=O)[O-].Cc1ccc[n+](C)c1
Settings | osmotic coefficient
m1 = 0.0259 | 0.824
m1 = 0.0466 | 0.746
m1 = 0.1056 | 0.668
m1 = 0.2078 | 0.601
m1 = 0.3112 | 0.528
m1 = 0.4005 | 0.501
m1 = 0.5132 | 0.469
m1 = 0.9858 | 0.425
m1 = 1.282 | 0.406
m1 = 1.685 | 0.394
m1 = 2.078 | 0.387
m1 = 2.497 | 0.375
m1 = 2.911 | 0.368

CCC(C)O (centres undefined) [butan-2-ol] + COS(=O)(=O)[O-].Cc1ccc[n+](C)c1
Settings | osmotic coefficient
m1 = 0.0458 | 0.818
m1 = 0.0728 | 0.729
m1 = 0.0933 | 0.696
m1 = 0.2019 | 0.605
m1 = 0.3113 | 0.547
m1 = 0.3991 | 0.512
m1 = 0.4981 | 0.474
m1 = 0.6846 | 0.441
m1 = 0.9815 | 0.408
m1 = 1.285 | 0.383
m1 = 1.687 | 0.361
m1 = 2.105 | 0.345
m1 = 2.501 | 0.333
m1 = 2.914 | 0.327
m1 = 3.291 | 0.32

CCCCCO [pentan-1-ol] + COS(=O)(=O)[O-].Cc1ccc[n+](C)c1
Settings | osmotic coefficient
m1 = 0.0303 | 0.77
m1 = 0.0543 | 0.677
m1 = 0.0875 | 0.618
m1 = 0.1103 | 0.584
m1 = 0.2153 | 0.505
m1 = 0.3078 | 0.464
m1 = 0.412 | 0.425
m1 = 0.5092 | 0.401
m1 = 0.8077 | 0.372
m1 = 1.106 | 0.352
m1 = 1.71 | 0.33
m1 = 2.229 | 0.315
m1 = 2.726 | 0.308
m1 = 3.198 | 0.3

CCCO [propan-1-ol] + COS(=O)(=O)[O-].Cc1ccc[n+](C)c1
Settings | osmotic coefficient
m1 = 0.0785 | 0.885
m1 = 0.0971 | 0.803
m1 = 0.2088 | 0.711
m1 = 0.3089 | 0.671
m1 = 0.4144 | 0.658
m1 = 0.5126 | 0.642
m1 = 0.8126 | 0.609
m1 = 1.104 | 0.576
m1 = 1.401 | 0.548
m1 = 1.691 | 0.533
m1 = 2.219 | 0.508
m1 = 2.721 | 0.494
m1 = 3.211 | 0.478

CC(C)O [propan-2-ol] + COS(=O)(=O)[O-].Cc1ccc[n+](C)c1
Settings | osmotic coefficient
m1 = 0.072 | 0.969
m1 = 0.1185 | 0.873
m1 = 0.2149 | 0.767
m1 = 0.3087 | 0.699
m1 = 0.408 | 0.654
m1 = 0.5005 | 0.628
m1 = 0.7082 | 0.57
m1 = 1.013 | 0.532
m1 = 1.296 | 0.51
m1 = 1.72 | 0.49
m1 = 2.095 | 0.468
m1 = 2.494 | 0.46
m1 = 2.956 | 0.436
m1 = 3.326 | 0.419
